Test results reported in paper PMC6934184, “Selective DNA-PKcs inhibition extends the therapeutic index of localized radiotherapy and chemotherapy” (The Journal of Clinical Investigation, 2019).

Biological target: T1, SRPK2 (Homo sapiens, UniProt P78362)
T1 construct: purchased Thermo Fisher Scientific (Life Technologies) SelectScreen
Test: SelectScreen Z'LYTE
Format: biochemical
Method in brief: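 NU5455 was profiled across the SelectScreen Broad panel of kinase activity and binding assays. Z'LYTE reactions such as CSF1R ran at apparent Km ATP, while the Adapta CAMK1 assay used ATP listed as 10. Values are given as percent.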

T1 sequence (P78362 whole entry): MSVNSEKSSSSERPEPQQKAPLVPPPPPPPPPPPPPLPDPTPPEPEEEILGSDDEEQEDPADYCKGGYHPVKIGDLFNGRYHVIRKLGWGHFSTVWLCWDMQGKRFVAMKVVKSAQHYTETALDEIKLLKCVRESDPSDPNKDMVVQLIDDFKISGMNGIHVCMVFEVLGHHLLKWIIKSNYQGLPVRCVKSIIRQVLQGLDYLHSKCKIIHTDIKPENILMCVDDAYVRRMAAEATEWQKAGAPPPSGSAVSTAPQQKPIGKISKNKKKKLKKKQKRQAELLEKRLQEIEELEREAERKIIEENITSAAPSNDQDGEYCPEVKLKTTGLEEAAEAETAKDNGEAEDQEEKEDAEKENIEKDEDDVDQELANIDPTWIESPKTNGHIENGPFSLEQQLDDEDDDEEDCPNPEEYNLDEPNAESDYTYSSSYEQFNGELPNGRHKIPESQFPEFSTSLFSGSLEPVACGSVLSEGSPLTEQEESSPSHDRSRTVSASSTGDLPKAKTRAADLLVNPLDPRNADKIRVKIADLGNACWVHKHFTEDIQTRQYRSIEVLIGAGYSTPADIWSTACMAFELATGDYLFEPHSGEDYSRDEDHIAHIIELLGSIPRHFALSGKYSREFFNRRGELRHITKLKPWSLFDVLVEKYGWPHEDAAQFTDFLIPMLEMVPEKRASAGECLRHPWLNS

CN(C(=O)CN1CCOCC1)c1ccc2sc3c(-c4cccc5c(=O)cc(N6CC7CCC(C6)O7)oc45)cccc3c2c1 [NU5455]
inhibition at 1 µM: 3.9%
